One block for each compound: values may come before it.
Experiments:
D(1A) dopamine receptor = D(1A) dopamine receptor (Homo sapiens, UniProt P21728); experiment: Selectivity interaction (Panel of non-epigenetic targets (kinases, GPCRs, ion channels, and transporters, Eurofins) ) EUB0000271b DRD1; details: at 1 µM
[1] = target: Protein arginine N-methyltransferase 5 (Homo sapiens, UniProt O14744); experiment: Selectivity interaction (Scintillation proximity assays) EUB0000255b PRMT5
[2] = target: Tyrosine-protein kinase FRK (Homo sapiens) (UniProt P42685); details: at 10 µM
[3] = target: Calcium/calmodulin-dependent protein kinase type II subunit gamma (Homo sapiens) (UniProt Q13555); experiment: Selectivity interaction (ActivX KiNativ screen (kinase selectivity in THP-1 cell lysates)) EUB0000639a CAMK2G; format: subcellular; details: lysate
[4] = target: Ribosomal protein S6 kinase alpha-3 (Homo sapiens, UniProt P51812); experiment: Selectivity interaction (Kinase panel (Invitrogen)) EUB0000639a RPS6KA3; details: at 200 nM
[5] = target: Protein kinase C theta type (Homo sapiens, UniProt Q04759); experiment: Selectivity interaction (Kinase panel (Invitrogen)) EUB0000639a PRKCQ; details: at 200 nM
[6] = target: T1, Serine/threonine-protein kinase D2 (Homo sapiens) (UniProt Q9BZL6); experiment: Selectivity interaction (ProQinase) EUB0000171b PRKD2
T1 sequence (whole entry): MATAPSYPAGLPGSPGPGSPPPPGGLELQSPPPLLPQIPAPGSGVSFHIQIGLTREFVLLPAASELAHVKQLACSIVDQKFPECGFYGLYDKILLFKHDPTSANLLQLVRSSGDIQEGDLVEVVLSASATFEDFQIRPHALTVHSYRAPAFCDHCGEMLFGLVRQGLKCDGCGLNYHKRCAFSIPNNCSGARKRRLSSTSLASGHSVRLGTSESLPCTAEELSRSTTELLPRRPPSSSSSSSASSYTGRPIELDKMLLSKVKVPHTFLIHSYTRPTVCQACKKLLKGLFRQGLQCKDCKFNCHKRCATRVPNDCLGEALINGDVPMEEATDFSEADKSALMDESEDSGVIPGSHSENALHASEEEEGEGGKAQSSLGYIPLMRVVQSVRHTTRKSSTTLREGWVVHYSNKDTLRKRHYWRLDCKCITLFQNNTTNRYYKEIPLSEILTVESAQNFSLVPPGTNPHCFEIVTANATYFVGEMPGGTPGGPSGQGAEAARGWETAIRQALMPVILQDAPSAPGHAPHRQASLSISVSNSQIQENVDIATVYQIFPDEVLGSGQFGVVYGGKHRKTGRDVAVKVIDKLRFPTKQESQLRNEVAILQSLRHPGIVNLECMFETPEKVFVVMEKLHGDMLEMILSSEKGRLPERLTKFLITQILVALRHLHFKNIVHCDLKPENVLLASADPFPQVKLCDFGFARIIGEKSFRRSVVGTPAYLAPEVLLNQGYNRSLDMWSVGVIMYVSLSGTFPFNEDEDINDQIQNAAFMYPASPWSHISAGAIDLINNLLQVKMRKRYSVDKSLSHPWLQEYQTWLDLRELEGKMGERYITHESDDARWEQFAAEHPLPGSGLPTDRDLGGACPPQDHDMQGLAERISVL

[7] = target: T2, Mitogen-activated protein kinase kinase kinase 5 (Homo sapiens) (UniProt Q99683); experiment: Selectivity interaction (ProQinase) EUB0000171b MAP3K5
T2 sequence (whole entry): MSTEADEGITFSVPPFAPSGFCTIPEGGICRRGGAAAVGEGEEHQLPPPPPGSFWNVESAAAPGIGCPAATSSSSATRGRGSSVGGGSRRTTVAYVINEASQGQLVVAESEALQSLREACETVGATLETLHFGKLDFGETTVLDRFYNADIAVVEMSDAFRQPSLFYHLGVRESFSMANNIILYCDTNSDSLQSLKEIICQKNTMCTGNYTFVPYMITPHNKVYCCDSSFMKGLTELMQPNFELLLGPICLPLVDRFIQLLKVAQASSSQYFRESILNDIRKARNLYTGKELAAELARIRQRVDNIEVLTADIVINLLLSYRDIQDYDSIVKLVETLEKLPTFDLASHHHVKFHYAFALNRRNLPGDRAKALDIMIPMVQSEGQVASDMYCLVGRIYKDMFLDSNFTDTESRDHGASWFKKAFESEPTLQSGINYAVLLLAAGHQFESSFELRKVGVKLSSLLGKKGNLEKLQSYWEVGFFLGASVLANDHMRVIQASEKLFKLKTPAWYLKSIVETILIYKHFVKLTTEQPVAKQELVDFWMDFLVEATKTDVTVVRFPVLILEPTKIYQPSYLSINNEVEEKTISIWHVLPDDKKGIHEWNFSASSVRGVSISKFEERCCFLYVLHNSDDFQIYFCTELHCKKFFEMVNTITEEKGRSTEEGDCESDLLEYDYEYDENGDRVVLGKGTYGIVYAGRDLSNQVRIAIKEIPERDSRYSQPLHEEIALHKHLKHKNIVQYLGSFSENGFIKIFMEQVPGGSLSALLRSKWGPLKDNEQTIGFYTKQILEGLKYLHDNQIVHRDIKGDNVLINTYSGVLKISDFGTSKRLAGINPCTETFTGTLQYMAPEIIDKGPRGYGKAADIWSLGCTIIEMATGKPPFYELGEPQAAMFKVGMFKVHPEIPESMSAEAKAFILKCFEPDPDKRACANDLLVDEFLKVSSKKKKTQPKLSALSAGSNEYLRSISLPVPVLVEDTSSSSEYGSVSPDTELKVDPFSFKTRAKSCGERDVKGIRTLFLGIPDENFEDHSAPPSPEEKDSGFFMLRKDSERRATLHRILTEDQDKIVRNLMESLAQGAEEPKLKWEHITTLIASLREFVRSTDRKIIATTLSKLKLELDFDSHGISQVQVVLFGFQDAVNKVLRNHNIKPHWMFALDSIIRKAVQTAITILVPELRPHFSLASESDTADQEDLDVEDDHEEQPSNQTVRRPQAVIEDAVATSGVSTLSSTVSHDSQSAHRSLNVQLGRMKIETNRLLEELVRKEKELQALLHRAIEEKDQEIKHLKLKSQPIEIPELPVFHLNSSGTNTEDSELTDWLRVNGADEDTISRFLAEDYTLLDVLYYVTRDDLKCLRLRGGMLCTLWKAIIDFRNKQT

[8] = target: T1, Serine/threonine-protein kinase D2 (Homo sapiens); experiment: Selectivity interaction (KinomeScan (DiscoverX)) EUB0000092b PRKD2; details: at 10 µM
[9] = target: Tyrosine-protein kinase Lyn (Homo sapiens, UniProt P07948); experiment: Selectivity interaction (KinomeScan (DiscoverX)) EUB0000092b LYN; details: at 10 µM
[10] = target: cAMP-dependent protein kinase catalytic subunit alpha (Homo sapiens, UniProt P17612); experiment: Selectivity interaction (KinomeScan (DiscoverX)) EUB0000092b PRKACA; details: at 10 µM

Chain of Calcium/calmodulin-dependent protein kinase type II subunit gamma (Homo sapiens) (Q13555 whole entry): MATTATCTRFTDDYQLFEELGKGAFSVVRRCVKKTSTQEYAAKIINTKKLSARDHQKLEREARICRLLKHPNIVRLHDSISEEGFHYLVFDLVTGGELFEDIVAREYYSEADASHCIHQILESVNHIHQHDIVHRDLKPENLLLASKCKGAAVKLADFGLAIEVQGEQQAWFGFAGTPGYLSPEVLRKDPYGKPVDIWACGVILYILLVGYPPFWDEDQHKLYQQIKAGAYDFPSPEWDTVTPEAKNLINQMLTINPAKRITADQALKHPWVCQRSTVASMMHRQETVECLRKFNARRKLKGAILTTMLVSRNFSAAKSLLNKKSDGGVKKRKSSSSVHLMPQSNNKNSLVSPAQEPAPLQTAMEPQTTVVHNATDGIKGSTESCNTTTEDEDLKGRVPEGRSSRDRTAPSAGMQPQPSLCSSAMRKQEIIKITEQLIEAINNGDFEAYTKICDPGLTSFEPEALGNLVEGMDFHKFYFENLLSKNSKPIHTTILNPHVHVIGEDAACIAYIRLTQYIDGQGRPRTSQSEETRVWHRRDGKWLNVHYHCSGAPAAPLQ
Chain of D(1A) dopamine receptor (P21728 whole entry): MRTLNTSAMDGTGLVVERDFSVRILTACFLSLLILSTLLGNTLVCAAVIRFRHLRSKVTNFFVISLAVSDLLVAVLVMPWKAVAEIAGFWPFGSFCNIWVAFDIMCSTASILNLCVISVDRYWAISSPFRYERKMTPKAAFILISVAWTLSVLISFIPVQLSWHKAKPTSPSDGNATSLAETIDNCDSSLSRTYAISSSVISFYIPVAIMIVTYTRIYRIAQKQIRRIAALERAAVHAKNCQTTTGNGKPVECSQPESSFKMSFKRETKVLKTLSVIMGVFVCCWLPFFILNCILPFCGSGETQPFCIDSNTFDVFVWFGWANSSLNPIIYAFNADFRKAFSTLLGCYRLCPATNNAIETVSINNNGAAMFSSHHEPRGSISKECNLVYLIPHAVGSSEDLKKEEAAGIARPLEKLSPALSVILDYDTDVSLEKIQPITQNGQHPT
Chain of Ribosomal protein S6 kinase alpha-3 (P51812 whole entry): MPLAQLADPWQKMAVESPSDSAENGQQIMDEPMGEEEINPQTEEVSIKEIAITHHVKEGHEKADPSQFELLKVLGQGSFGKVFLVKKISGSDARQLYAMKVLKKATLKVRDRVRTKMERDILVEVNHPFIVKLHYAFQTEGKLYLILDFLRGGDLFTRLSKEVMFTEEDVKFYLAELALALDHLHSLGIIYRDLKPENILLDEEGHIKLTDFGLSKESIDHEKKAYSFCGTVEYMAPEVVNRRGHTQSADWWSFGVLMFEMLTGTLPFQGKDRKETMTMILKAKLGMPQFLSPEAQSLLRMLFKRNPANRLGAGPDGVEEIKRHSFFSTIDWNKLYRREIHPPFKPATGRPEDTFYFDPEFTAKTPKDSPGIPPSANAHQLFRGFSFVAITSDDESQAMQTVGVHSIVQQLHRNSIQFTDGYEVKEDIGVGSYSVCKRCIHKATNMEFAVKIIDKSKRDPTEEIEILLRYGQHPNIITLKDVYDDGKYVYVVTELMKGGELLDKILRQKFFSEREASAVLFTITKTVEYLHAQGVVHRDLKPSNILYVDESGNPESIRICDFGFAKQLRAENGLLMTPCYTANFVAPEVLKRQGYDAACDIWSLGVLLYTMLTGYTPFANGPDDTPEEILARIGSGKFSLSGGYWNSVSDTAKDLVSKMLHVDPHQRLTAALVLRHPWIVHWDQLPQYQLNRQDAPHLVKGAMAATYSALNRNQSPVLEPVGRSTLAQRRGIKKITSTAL
Chain of Tyrosine-protein kinase FRK (Homo sapiens) (P42685 whole entry): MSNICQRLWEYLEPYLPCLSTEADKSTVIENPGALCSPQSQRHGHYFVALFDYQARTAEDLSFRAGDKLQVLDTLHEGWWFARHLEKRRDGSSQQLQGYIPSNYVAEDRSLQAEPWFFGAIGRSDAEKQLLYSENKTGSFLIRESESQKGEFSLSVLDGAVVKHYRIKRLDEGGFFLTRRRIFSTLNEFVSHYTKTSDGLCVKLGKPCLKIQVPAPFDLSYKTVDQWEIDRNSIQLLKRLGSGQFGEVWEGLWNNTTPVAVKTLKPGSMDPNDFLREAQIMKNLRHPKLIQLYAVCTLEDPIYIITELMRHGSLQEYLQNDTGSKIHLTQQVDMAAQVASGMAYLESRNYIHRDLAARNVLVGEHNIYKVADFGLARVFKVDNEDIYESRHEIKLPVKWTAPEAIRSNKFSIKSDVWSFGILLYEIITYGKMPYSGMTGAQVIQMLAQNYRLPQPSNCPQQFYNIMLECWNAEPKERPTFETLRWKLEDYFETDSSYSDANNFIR
Chain of Protein arginine N-methyltransferase 5 (O14744 whole entry): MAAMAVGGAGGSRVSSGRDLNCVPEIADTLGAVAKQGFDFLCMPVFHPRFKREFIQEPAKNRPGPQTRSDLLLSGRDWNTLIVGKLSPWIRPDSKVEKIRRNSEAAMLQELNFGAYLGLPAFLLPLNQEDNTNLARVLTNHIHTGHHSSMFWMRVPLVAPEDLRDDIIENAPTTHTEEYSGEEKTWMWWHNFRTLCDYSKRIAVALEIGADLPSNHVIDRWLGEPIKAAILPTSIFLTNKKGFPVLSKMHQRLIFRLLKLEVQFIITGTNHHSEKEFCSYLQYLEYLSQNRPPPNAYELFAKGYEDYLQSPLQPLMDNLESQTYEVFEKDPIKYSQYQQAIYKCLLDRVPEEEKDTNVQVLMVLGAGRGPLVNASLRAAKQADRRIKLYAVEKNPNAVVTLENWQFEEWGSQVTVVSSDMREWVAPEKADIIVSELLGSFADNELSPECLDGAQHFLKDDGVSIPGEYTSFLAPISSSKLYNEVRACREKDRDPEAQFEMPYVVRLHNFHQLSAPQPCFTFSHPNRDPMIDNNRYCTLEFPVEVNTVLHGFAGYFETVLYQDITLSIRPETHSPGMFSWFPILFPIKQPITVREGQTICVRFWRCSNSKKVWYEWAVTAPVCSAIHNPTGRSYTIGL
Chain of Protein kinase C theta type (Q04759 whole entry, looked up): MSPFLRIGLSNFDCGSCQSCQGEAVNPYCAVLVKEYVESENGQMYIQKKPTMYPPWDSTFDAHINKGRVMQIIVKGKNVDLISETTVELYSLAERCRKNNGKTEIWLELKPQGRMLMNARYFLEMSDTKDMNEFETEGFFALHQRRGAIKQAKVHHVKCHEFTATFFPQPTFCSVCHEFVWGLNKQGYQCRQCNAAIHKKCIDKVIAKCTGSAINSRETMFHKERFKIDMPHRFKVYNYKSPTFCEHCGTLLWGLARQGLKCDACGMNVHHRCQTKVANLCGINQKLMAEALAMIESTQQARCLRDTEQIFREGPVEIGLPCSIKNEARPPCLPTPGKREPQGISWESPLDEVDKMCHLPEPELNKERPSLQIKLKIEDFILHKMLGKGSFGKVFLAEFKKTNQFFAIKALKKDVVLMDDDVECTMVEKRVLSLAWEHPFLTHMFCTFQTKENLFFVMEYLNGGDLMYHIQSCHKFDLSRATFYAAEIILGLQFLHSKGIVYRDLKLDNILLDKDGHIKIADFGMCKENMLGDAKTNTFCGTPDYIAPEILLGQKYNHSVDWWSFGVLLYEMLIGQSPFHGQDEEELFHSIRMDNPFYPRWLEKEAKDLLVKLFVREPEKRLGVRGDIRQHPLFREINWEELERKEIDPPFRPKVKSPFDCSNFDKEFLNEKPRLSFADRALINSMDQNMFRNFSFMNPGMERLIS
Chain of Tyrosine-protein kinase Lyn (P07948 2-512 limits assumed): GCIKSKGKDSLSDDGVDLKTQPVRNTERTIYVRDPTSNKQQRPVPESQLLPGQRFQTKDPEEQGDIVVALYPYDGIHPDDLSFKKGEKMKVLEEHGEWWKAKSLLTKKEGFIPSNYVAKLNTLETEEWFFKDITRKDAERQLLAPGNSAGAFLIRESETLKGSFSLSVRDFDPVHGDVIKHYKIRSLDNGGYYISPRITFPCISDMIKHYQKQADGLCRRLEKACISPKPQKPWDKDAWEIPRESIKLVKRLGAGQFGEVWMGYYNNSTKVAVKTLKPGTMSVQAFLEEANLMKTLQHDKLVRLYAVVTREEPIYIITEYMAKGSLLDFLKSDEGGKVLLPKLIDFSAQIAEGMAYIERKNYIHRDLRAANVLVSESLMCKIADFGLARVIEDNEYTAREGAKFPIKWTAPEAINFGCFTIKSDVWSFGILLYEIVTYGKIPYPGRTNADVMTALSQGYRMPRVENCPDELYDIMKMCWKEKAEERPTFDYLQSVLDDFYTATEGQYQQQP

Compound: Cc1cc(C)cc([C@@H]2c3cc(C)ccc3NC(=O)CN2C(=O)c2ccc(Br)s2)c1
% of inhibition (D(1A) dopamine receptor): 9%

Compound: COCCN1CCC(c2cc(CN(C)C(=O)c3cccc(Oc4ccccc4)c3)ccn2)CC1
IC50 [1]: > 10 µM

Compound: COCC(=O)NC/C=C/c1ccc2ncnc(Nc3ccc(Oc4ccc(C)nc4)c(C)c3)c2c1 [CP-724714]
% of control [2]: 100%

% of inhibition ([3]; at 0.01 µM): -1%
% of inhibition ([3]; at 0.04 µM): 3.3%
% of inhibition ([3]; at 0.2 µM): 10%
% of inhibition ([3]; at 1 µM): 35.2%
% of inhibition ([3]; at 5 µM): 63%
% of inhibition [4]: -6.31%
% of inhibition [5]: 3.66%
Compound: CC[C@@H]1[C@H](F)C(=O)N[C@@H]1COc1nccc2cc(C(N)=O)c(OC)cc12 [ZIMLOVISERTIB]

% of control ([6]; at 1 µM): 69%
% of control ([6]; at 5 µM): 43%
% of control ([7]; at 1 µM): 92%
% of control ([7]; at 5 µM): 95%
Compound: C=CC(=O)Nc1cccc(C(=O)Nc2ccc(Nc3cc(-c4[nH]c(SC)nc4C)ccn3)cc2)c1

Compound: CCC(=O)N1CCN(c2ccc(-n3c(=O)ccc4cnc5ccc(-c6cnc7ccccc7c6)cc5c43)cc2C(F)(F)F)CC1
% of control [8]: 100%
% of control [9]: 79%
% of control [10]: 79%

Source: ChEMBL document CHEMBL5465560, “Selectivity Literature for EUbOPEN Chemogenomic Library” (2024)
